Measurements: US5519034A, “Tetraisoquinoline compounds which have useful pharmaceutical utility” (The Boots Company PLC, priority 1991, dated 1996)
Where two headings read alike, the source gives them in different places.

Experiments:
D1 dopamine receptors = target: T1, D1 dopamine receptors (Rattus norvegicus, UniProt P18901); assay: D1 dopamine receptor binding: inhibition of tritiated SCH 23390 binding, rat striatal samples; design: species or system rat (male Charles River CD rats); settings: rat striatum, tritiated SCH 23390, pH 7.4, 37° C., 30 minutes
T1 construct: Striatal samples from the brains of male Charles River CD rats; from tissue; host or cells: striatum of male Charles River CD rats (washed membrane pellet)
T1 sequence (P18901 whole entry): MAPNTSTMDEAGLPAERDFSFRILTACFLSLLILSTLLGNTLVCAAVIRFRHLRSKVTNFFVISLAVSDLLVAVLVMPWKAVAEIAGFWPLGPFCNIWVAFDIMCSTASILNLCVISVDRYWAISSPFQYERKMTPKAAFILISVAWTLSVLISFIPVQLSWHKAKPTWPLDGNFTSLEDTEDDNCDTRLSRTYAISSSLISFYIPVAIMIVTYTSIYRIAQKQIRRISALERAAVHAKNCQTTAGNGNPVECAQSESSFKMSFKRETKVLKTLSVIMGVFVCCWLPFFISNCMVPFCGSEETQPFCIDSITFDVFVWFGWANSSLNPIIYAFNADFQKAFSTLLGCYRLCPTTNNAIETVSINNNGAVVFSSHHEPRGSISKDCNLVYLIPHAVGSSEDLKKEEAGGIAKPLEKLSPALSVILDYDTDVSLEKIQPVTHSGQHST
Description: (§1) Striatal samples from the brains of male Charles River CD rats weighing between 140-250 g were homogenised in ice-cold 50 mM Tris-HCl buffer (pH 7.4 when measured at 25° C. for D1 binding assays and pH 7.7 when measured at 25° C. for D2 binding assays) and centrifuged for 10 minutes (at 21,000 g when used for D1binding assay and 40,000 g when used for D2binding assays). The pellet was resuspended in the same buffer, again centrifuged and the final pellet stored at -80° C. Before each test the pellet was resuspended in 50 mM Tris-HCl buffer containing 120 mM NaCl, 5 mM KCl, 2 mM CaCl2 and 1 mM MgCl2 at pH 7.4 for the D1 binding assays and at pH 7.7 with the addition of 6 mM ascorbic acid for the D2 binding assays. Aliquots of this suspension were then added to tubes containing the ligand and either the compound under test or buffer. For the D1 binding assays the ligand was tritiated SCH 23390 and the mixture was incubated at 37° C. for 30 minutes before the incubation was terminated by rapid filtration. For the D2 binding assays the ligand was tritiated (S)-sulpiride and the mixture was incubated at 4° C. for 40 minutes before the incubation was terminated by rapid filtration. Non-specific binding was determined experimentally by the addition of saturating concentrations of chloropromazine or spiroperidol for D1 and D2 receptors respectively.
(§2) The filters were washed with ice-cold Tris-HCl buffer and dried. The filters were punched out on to vials containing scintillation fluid and were left for about 20 hours before being counted by scintillation spectrophotometry. Displacement curves were produced over a range of concentrations of the compound under test and the concentration which gave a 50% inhibition of specific binding (IC50) obtained from the curve. The inhibition coefficient Ki was then calculated using the formula [formula] in which [ligand] is the concentration of the tritiated ligand used and KD is the equilibrium dissociation constant for the ligand.
(§3) In some cases Ki values for D2 binding were estimated from single concentration data by the application of the Langmuir adsorption isotherm equation. These cases are indicated by an "E" in the last two columns of Table I. In other cases it was not possible to determine or estimate the Ki and the Ki value is given as greater than (>) that which would result from the application of the above formula to the highest concentration which displaced ≤50% of the ligand.

D2 dopamine receptors = target: T2, D2 dopamine receptors (Rattus norvegicus, UniProt P61169); assay: D2 dopamine receptor binding: inhibition of tritiated (S)-sulpiride binding, rat striatal samples; design: species or system rat (male Charles River CD rats); settings: for Ki: rat striatum, tritiated (S)-sulpiride; for Ki for D2 / Ki for D1: ratio to two significant figures
T2 construct: Striatal samples from the brains of male Charles River CD rats; from tissue; host or cells: striatum of male Charles River CD rats (washed membrane pellet)
T2 sequence (P61169 whole entry): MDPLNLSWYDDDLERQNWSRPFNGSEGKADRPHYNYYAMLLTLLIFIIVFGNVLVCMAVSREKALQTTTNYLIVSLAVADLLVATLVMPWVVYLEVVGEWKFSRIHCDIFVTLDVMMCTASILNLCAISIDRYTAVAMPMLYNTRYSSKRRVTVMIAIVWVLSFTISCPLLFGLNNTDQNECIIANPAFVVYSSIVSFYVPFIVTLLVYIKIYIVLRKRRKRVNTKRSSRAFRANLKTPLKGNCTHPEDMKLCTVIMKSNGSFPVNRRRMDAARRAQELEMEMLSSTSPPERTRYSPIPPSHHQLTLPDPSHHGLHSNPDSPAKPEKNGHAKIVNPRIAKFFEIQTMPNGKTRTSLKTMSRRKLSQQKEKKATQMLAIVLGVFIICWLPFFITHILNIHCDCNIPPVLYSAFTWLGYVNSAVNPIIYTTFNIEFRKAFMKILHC
Description: as §1, §2, §3

[1] = estimated from single concentration data by Langmuir adsorption isotherm equation, read-out: Ki for D2 binding (marked E)
[2] = pH 7.7, 4° C., 40 minutes, > = from highest concentration which displaced ≤50% of the ligand, read-out: Ki for D2 binding

| SMILES | Ki (D1 dopamine receptors) [nM] | Ki (D2 dopamine receptors; [1]) [nM] | Ki (D2 dopamine receptors; [2]) [nM] | Ki for D2 / Ki for D1 (D2 dopamine receptors) |
| --- | --- | --- | --- | --- |
| CN1CCc2c(cc(O)c(O)c2Cl)C1C1(c2ccccc2)CCC1 (stereo not shown) [Example 32, 5-chloro-6,7-dihydroxy-2-methyl-1-(1-phenylcyclobutyl)-1,2,3,4-tetrahydroisoquinoline] | 140 |  | > 5000 | > 36 |
| CN1CCc2cc(F)c(O)cc2C1C1(c2ccccc2Br)CCC1 (stereo not shown) [Example 34, 1-[1-(2-bromophenyl)cyclobutyl]-6-fluoro-7-hydroxy-2-methyl-1,2,3,4-tetrahydroisoquinoline] | 1.8 |  | 7800 | 4300 |
| CN1CCc2cc(Cl)c(O)cc2C1C1(c2ccccc2Br)CCC1 (stereo not shown) [Example 40, 1-[1-(2-bromophenyl)cyclobutyl]-6-chloro-7-hydroxy-2-methyl-1,2,3,4-tetrahydroisoquinoline] | 0.4 |  | 18000 | 45000 |
| CN1CCc2ccc(O)cc2C1C1(c2ccccc2)CCC1 (stereo not shown) [Example 41, 7-hydroxy-2-methyl-1-(1-phenylcyclobutyl)-1,2,3,4-tetrahydroisoquinoline] | 79 |  | 13000 | 160 |
| CN1CCc2cc(O)c(O)cc2C1C1(c2ccc3ccccc3c2)CCC1 (stereo not shown) [Example 42, 6,7-dihydroxy-2-methyl-1-[1-(2-naphthyl)cyclobutyl]-1,2,3,4-tetrahydroisoquinoline] | 170 |  | 2500 | 15 |
| CN1CCc2c(Cl)ccc(O)c2C1C1(c2ccccc2)CCC1 (stereo not shown) [Example 44, 5-chloro-8-hydroxy-2-methyl-1-(1-phenylcyclobutyl)-1,2,3,4-tetrahydroisoquinoline] | 130 |  | 4800 | 37 |
| CN1CCc2cc(O)c(O)cc2C1C1(c2ccc(Cl)cc2Cl)CCC1 (stereo not shown) [Example 46] | 6.6 |  | 1200 | 180 |
| CN1CCc2ccc(O)cc2C1C1(c2ccccc2Cl)CCC1 (stereo not shown) [Example 47, 1-[1-(2-chlorophenyl)cyclobutyl]-7-hydroxy-2-methyl-1,2,3,4-tetrahydroisoquinoline] | 9.1 |  | 19000 | 2100 |
| CN1CCc2cc(O)c(O)cc2C1C1(c2ccc(Cl)cc2)CCC1 (stereo not shown) [Example 50, 1-[1-(4-chlorophenyl)cyclobutyl]-6,7-dihydroxy-2-methyl-1,2,3,4-tetrahydroisoquinoline] | 25 |  | 1500 | 60 |
| CN1CCc2ccc(O)cc2C1C1(c2ccc(Cl)cc2)CCC1 (stereo not shown) [Example 51, 1-[1-(4-chlorophenyl)cyclobutyl]-7-hydroxy-2-methyl-1,2,3,4-tetrahydroisoquinoline] | 13 |  | > 500 | > 38 |
| CN1CCc2cc(Cl)c(O)cc2C1C1(c2ccc(Cl)cc2)CCC1 (stereo not shown) [Example 53, 6-chloro-1-[1-(4-chlorophenyl)cyclobutyl]-7-hydroxy-2-methyl-1,2,3,4-tetrahydroisoquinoline] | 24 |  | 7600 | 320 |
| CN1CCc2cc([N+](=O)[O-])c(O)cc2C1C1(c2ccccc2)CCC1 (stereo not shown) [Example 57, 7-hydroxy-2-methyl-6-nitro-1-(1-phenylcyclobutyl)-1,2,3,4-tetrahydroisoquinoline] | 770 |  | > 5000 | > 6.5 |
| CN1CCc2cc(Cl)c(O)c(Cl)c2C1C1(c2ccccc2)CCC1 (stereo not shown) [Example 58, 6,8-dichloro-7-hydroxy-2-methyl-1-(1-phenylcyclobutyl)-1,2,3,4-tetrahydroisoquinoline] | 740 |  | 360000 | 490 |
| CN1CCc2cc(F)c(O)cc2C1C1(c2ccccc2Cl)CC1 (stereo not shown) [Example 61, 1-[1-(2-chlorophenyl)cyclopropyl]-6-fluoro-7-hydroxy-2-methyl-1,2,3,4-tetrahydroisoquinoline] | 0.18 |  | 450 | 2500 |

The remaining lines, values ahead:

| Ki (D1 dopamine receptors) [nM] | Ki (D2 dopamine receptors; [1]) [nM] | Ki (D2 dopamine receptors; [2]) [nM] | Ki for D2 / Ki for D1 (D2 dopamine receptors) | SMILES |
| --- | --- | --- | --- | --- |
| 540 | 11000 |  |  | CN1CCc2cc(O)c(Cl)cc2C1C1(c2ccccc2)CCC1 (stereo not shown) [Example 31, 7-chloro-6-hydroxy-2-methyl-1-(1-phenylcyclobutyl)-1,2,3,4-tetrahydroisoquinoline] |
| 65 |  | 23000 | 350 | CN1CCc2cc(O)c(O)cc2C1C1(c2cccc(Cl)c2)CCC1 (stereo not shown) [Example 33, 1-[1-(3-chlorophenyl)cyclobutyl]-6,7-dihydroxy-2-methyl-1,2,3,4-tetrahydroisoquinoline] |
| 1.3 |  | 240000 | 180000 | COc1cc2c(cc1O)C(C1(c3ccccc3Cl)CCC1)N(C)CC2 (stereo not shown) [Example 35, 1-[1-(2-chlorophenyl)cyclobutyl]-7-hydroxy-6-methoxy-2-methyl-1,2,3,4-tetrahydroisoquinoline] |
| 62 |  | 4400 | 71 | COc1cc2c(cc1O)C(C1(c3ccccc3)CCCCC1)N(C)CC2 (stereo not shown) [Example 36, 7-hydroxy-6-methoxy-2-methyl-1-(1-phenylcyclohexyl)-1,2,3,4-tetrahydroisoquinoline] |
| 0.6 |  | 5300 | 8800 | COc1cc2c(cc1O)C(C1(c3ccc(Cl)cc3Cl)CCC1)N(C)CC2 (stereo not shown) [Example 37, 1-[1-(2,4-dichlorophenyl)cyclobutyl]-7-hydroxy-6-methoxy-2-methyl-1,2,3,4-tetrahydroisoquinoline] |
| 4.1 |  | 3400 | 830 | COc1cc2c(cc1O)C(C1(c3ccccc3OC)CCC1)N(C)CC2 (stereo not shown) [Example 38, 7-hydroxy-6-methoxy-1-[1-(2-methoxyphenyl)cyclobutyl]-2-methyl-1,2,3,4-tetrahydroisoquinoline] |
| 23 |  | 1900 | 83 | COc1cccc(C2(C3c4cc(O)c(OC)cc4CCN3C)CCC2)c1 (stereo not shown) [Example 39, 7-hydroxy-6-methoxy-1-[1-(3-methoxyphenyl)cyclobutyl]-2-methyl-1,2,3,4-tetrahydroisoquinoline] |
| 1.4 |  | 860 | 610 | COc1cc2c(cc1O)C(C1(c3cccc4ccccc34)CC1)N(C)CC2 (stereo not shown) [Example 43, 7-hydroxy-6-methoxy-2-methyl-1-[1-(1-naphthyl)cyclopropyl]-1,2,3,4-tetrahydroisoquinoline] |
| 24 |  | > 500 | > 21 | CN1CCc2cc(O)c(O)cc2C1C1(c2ccccc2)CCC1 (stereo not shown) [Example 45, 6,7-dihydroxy-2-methyl-1-(1-phenylcyclobutyl)-1,2,3,4-tetrahydroisoquinoline] |
| 94 | 3000 |  |  | COc1cc2c(cc1O)C(C1(c3ccccc3)CCCC1)N(C)CC2 (stereo not shown) [Example 48] |
| 8.4 |  | > 500 | > 60 | COc1cc2c(cc1O)C(C1(c3ccc(Cl)cc3)CCC1)N(C)CC2 (stereo not shown) [Example 49, 1-[1-(4-chlorophenyl)cyclobutyl]-7-hydroxy-6-methoxy-2-methyl-1,2,3,4-tetrahydroisoquinoline] |
| 17 |  | 5400 | 320 | CN1CCc2cc(Cl)c(O)cc2C1C1(c2ccccc2)CCC1 (stereo not shown) [Example 52, 6-chloro-7-hydroxy-2-methyl-1-(1-phenylcyclobutyl)-1,2,3,4-tetrahydroisoquinoline] |
| 32 |  | 3000 | 94 | COc1ccc(C2(C3c4cc(O)c(O)cc4CCN3C)CCC2)cc1 (stereo not shown) [Example 54] |
| 41 |  | > 500 | > 12 | COc1cc2c(cc1O)C(C1(c3ccccc3)CCC1)N(C)CC2 (stereo not shown) [Example 55, 7-hydroxy-6-methoxy-2-methyl-1-(1-phenylcyclobutyl)-1,2,3,4-tetrahydroisoquinoline] |
| 2.3 |  | 52000 | 23000 | COc1cc2c(cc1O)C(C1(c3cc(OC)c(OC)cc3Br)CCC1)N(C)CC2 (stereo not shown) [Example 56, 1-[1-(2-bromo-4,5-dimethoxyphenyl)cyclobutyl]-7-hydroxy-6-methoxy-2-methyl-1,2,3,4-tetrahydroisoquinoline] |
